Experimental data from PubChem BioAssay AID1259411 (Chemical Carcinogenesis Research Information System (CCRIS), 2018).
Calls of active or inactive are those of the source. How the calls were made is not given here.

Tested on: rodent carcinogenicity bioassays, tumor incidence
Test: CCRIS carcinogenicity studies
Method in brief: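 NCI-built, expert-reviewed records of carcinogenicity and related test outcomes (mutagenicity, tumor promotion/inhibition) compiled from published and report sources, historical span 1985-2011, not updated.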

`C=CC(=C)C` was tested, and the carcinogen call (Species: MOUSE, Strain/Sex: B6C3F1/MALE, Route: INHALATION, Dose: 0, 10, 70, 280, 700, 2200 PPM 8 HR/D 5 D/WK FOR 80 WK (STUDY DURATION: 104 WK), Dose: 0, 10, 70, 280, 700, 2200 PPM 8 HR/D 5 D/WK FOR 80 WK (STUDY DURATION: 104 WK), Tumor Site: Type of Lesion: LUNG: ALVEOLAR/BRONCHIOLAR ADENOMA OR CARCINOMA, LIVER: HEPATOCELLULAR ADENOMA OR CARCINOMA, HARDERIAN GLAND: ADENOMA, Tumor Site: Type of Lesion: LUNG: ALVEOLAR/BRONCHIOLAR ADENOMA OR CARCINOMA, LIVER: HEPATOCELLULAR ADENOMA OR CARCINOMA, HARDERIAN GLAND: ADENOMA) was “active; positive”, the carcinogen call (Species: MOUSE, Strain/Sex: B6C3F1/MALE, Route: INHALATION, Dose: 0, 70, 140, 2200 PPM 8 HR/D 5 D/WK FOR 40 WK (STUDY DURATION: 104 WK), Dose: 0, 70, 140, 2200 PPM 8 HR/D 5 D/WK FOR 40 WK (STUDY DURATION: 104 WK), Tumor Site: Type of Lesion: LUNG: ALVEOLAR/BRONCHIOLAR ADENOMA OR CARCINOMA, LIVER: HEPATOCELLULAR ADENOMA OR CARCINOMA, HARDERIAN GLAND: ADENOMA, Tumor Site: Type of Lesion: LUNG: ALVEOLAR/BRONCHIOLAR ADENOMA OR CARCINOMA, LIVER: HEPATOCELLULAR ADENOMA OR CARCINOMA, HARDERIAN GLAND: ADENOMA) was “active; positive” and the carcinogen call (Species: MOUSE, Strain/Sex: B6C3F1/MALE, Route: INHALATION, Dose: 0, 70, 220, 700, 2200, 7000 PPM 6 HR/D 5 D/WK FOR 26 WK FOLLOWED BY A 26-WK RECOVERY PERIOD (STUDY DURATION: 52 WK), Dose: 0, 70, 220, 700, 2200, 7000 PPM 6 HR/D 5 D/WK FOR 26 WK FOLLOWED BY A 26-WK RECOVERY PERIOD (STUDY DURATION: 52 WK), Tumor Site: Type of Lesion: LIVER: ADENOMA OR CARCINOMA, LUNG: ALVEOLAR/BRONCHIOLAR ADENOMA OR CARCINOMA, FORESTOMACH: PAPILLOMA OR CARCINOMA, HARDE, Tumor Site: Type of Lesion: LIVER: ADENOMA OR CARCINOMA, LUNG: ALVEOLAR/BRONCHIOLAR ADENOMA OR CARCINOMA, FORESTOMACH: PAPILLOMA OR CARCINOMA, HARDE) was “active; positive”. For the same compound, the carcinogen call (Species: MOUSE, Strain/Sex: B6C3F1/MALE, Route: INHALATION, Dose: 0, 280 PPM 8 HR/D 5 D/WK FOR 20 WK (STUDY DURATION: 104 WK), Tumor Site: Type of Lesion: HARDERIAN GLAND: ADENOMA, LIVER: ADENOMA) was “active; positive”, the carcinogen call (Species: MOUSE, Strain/Sex: B6C3F1/MALE, Route: INHALATION, Dose: 0, 2200 PPM 4 HR/D 5 D/WK FOR 20 WK (STUDY DURATION: 104 WK), Tumor Site: Type of Lesion: HARDERIAN GLAND: ADENOMA, LIVER: HEPATOCELLULAR ADENOMA OR CARCINOMA) was “active; positive” and the carcinogen call (Species: MOUSE, Strain/Sex: B6C3F1/MALE, Route: INHALATION, Dose: 0, 2200 PPM 4 HR/D 5 D/WK FOR 80 WK (STUDY DURATION: 104 WK), Tumor Site: Type of Lesion: LIVER: HEPATOCELLULAR ADENOMA OR CARCINOMA, HARDERIAN GLAND: ADENOMA) was “active; positive”. The carcinogen call (Species: RAT, Strain/Sex: F344/N/FEMALE, Route: INHALATION, Dose: 0, 220, 700, 7000 PPM 6 HR/D 5 D/WK FOR 105 WK (STUDY DURATION: 105 WK), Dose: 0, 220, 700, 7000 PPM 6 HR/D 5 D/WK FOR 105 WK (STUDY DURATION: 105 WK), Tumor Site: Type of Lesion: MAMMARY GLAND: FIBROADENOMA) was “active; positive” and the carcinogen call (Species: RAT, Strain/Sex: F344/N/MALE, Route: INHALATION, Dose: 0, 220, 700, 7000 PPM 6 HR/D 5 D/WK FOR 105 WK (STUDY DURATION: 105 WK), Dose: 0, 220, 700, 7000 PPM 6 HR/D 5 D/WK FOR 105 WK (STUDY DURATION: 105 WK), Tumor Site: Type of Lesion: KIDNEY: ADENOMA OR CARCINOMA, MAMMARY GLAND: FIBROADENOMA OR CARCINOMA, TESTES: ADENOMA, Tumor Site: Type of Lesion: KIDNEY: ADENOMA OR CARCINOMA, MAMMARY GLAND: FIBROADENOMA OR CARCINOMA, TESTES: ADENOMA) was “active; positive”.
For `CN(N=O)C(=O)c1c(N(C)N=O)ncn1C`, the carcinogen call (Species: RAT, Strain/Sex: BD-IX/MALE, FEMALE, Route: GAVAGE, Dose: 0, 6, 60 MG/KG 2/WK AFTER 2 WK HIGH DOSE REDUCED TO 30 MG/KG FOR DURATION OF STUDY (STUDY DURATION: LIFETIME), Dose: 0, 6, 60 MG/KG 2/WK AFTER 2 WK HIGH DOSE REDUCED TO 30 MG/KG FOR DURATION OF STUDY (STUDY DURATION: LIFETIME), Tumor Site: Type of Lesion: FORESTOMACH: TUMOR) was “active; positive”.
`CC(C)N(C(=O)SC/C(Cl)=C/Cl)C(C)C` was tested, and the carcinogen call (Species: MOUSE, Strain/Sex: B6AKF1/MALE, Route: GAVAGE/ORAL, Dose: 215 MG/KG IN GELATIN FROM D 7-28 OF LIFE THEN 560 PPM IN DIET, Tumor Site: Type of Lesion: LIVER: HEPATOMA) was “active; positive”, the carcinogen call (Species: MOUSE, Strain/Sex: B6C3F1/MALE,FEMALE, Route: GAVAGE/ORAL, Dose: 215 MG/KG IN GELATIN FROM D 7-28 OF LIFE THEN 560 PPM IN DIET, Tumor Site: Type of Lesion: LIVER: HEPATOMA) was “active; positive” and the carcinogen call (Species: RAT, Strain/Sex: STRAIN-CD/MALE,FEMALE, Route: ORAL, Dose: 150, 300 PPM IN DIET FOR 78 WK) was “inactive; negative”.
With `O=c1ccc(O)n[nH]1` the carcinogen call (Species: Mouse, Strain/Sex: Charles River CD-1/Female (50/Group), Route: Oral, Dose: 0, 189, 598, 1811 mg/kg/day of 90% maleic hydrazide potassium salt in diet for 98 wk, study duration 98 wk, Dose: 0, 189, 598, 1811 mg/kg/day of 90% maleic hydrazide potassium salt in diet for 98 wk, study duration 98 wk) was “inactive; negative”, the carcinogen call (Species: Mouse, Strain/Sex: Charles River CD-1/Male (50/Group), Route: Oral, Dose: 0, 157, 509, 1545 mg/kg/day of 90% maleic hydrazide potassium salt in diet for 98 wk, study duration 98 wk, Dose: 0, 157, 509, 1545 mg/kg/day of 90% maleic hydrazide potassium salt in diet for 98 wk, study duration 98 wk) was “inactive; negative” and the carcinogen call (Species: Rat, Strain/Sex: Sprague-Dawley/Female (50/Group), Route: Oral, Dose: 0, 25, 500, 1000 mg/kg/day of 72.5-73.8% as maleic hydrazide in diet for 104 wk, study duration 104 wk, Dose: 0, 25, 500, 1000 mg/kg/day of 72.5-73.8% as maleic hydrazide in diet for 104 wk, study duration 104 wk) was “inactive; negative”. For the same compound, the carcinogen call (Species: Rat, Strain/Sex: Sprague-Dawley/Male (50/Group), Route: Oral, Dose: 0, 25, 500, 1000 mg/kg/day of 72.5-73.8% as maleic hydrazide in diet for 104 wk, study duration 104 wk, Dose: 0, 25, 500, 1000 mg/kg/day of 72.5-73.8% as maleic hydrazide in diet for 104 wk, study duration 104 wk) was “inactive; negative”.
`C#C[C@]1(O)CC[C@H]2[C@@H]3CCC4=C(CCC(=O)C4)[C@H]3CC[C@@]21C` was tested, and the carcinogen call (Species: MOUSE, Route: ORAL, Tumor Site: Type of Lesion: MAMMARY GLAND, PITUITARY GLAND) was “active; positive” and the carcinogen call (Species: RAT, Route: ORAL, Tumor Site: Type of Lesion: LIVER, MAMMARY GLAND, PITUITARY GLAND, Tumor Site: Type of Lesion: LIVER, MAMMARY GLAND, PITUITARY GLAND) was “active; positive”.
`c1ccc2c(c1)ccc1cc3c4c(ccc3cc12)CCCC4` was tested, and the carcinogen call (Species: MOUSE, Strain/Sex: SWISS/FEMALE, Route: DERMAL, Dose: 0, 32 UG AS 0.2% SOLUTION IN ACETONE APPLIED TO INTERSCAPULAR REGION 2/WK FOR 50 WK (STUDY DURATION: 60 WK), Tumor Site: Type of Lesion: SKIN: CARCINOMA) was “active; positive”.
